Results: US20220194938A1, “NOVEL COMPOUNDS AND PHARMACEUTICAL COMPOSITIONS THEREOF FOR THE TREATMENT OF INFLAMMATORY DISORDERS” (GALAPAGOS NV, priority 2019, published 2022)
Like-named read-outs stand apart in the source and are kept apart here.

Columns and labels:
[1] = test system: pooled cryopreserved hepatocytes; assay: Metabolic stability in hepatocytes (human); format: in vitro ADME; conditions: 1 μM test compound
Method: 4.6. Metabolic Stability in Hepatocytes
The aim of this assay is to determine the metabolic stability of the compound in hepatocytes (cryopreserved) of different species. Low hepatocyte stability may result in the formation of unwanted metabolites, high clearance, and therefore is not desirable.
The decrease in parent was assessed by measuring the percentage remaining by LC-MS/MS analysis.
A 10 mM stock solution of test compound in DMSO was first diluted in DMSO to 3 mM, and then in modified Krebs-Henseleit buffer (Sigma, K3753) to 5 μM. This compound dilution was added to a suspension of pooled cryopreserved hepatocytes (BioreclamationIVT) at 37° C. under gentle shaking.
Final reaction conditions were: 1 μM of test compound, 0.03% DMSO, 0.5 million viable hepatocytes/mL, and 75 μL incubation volume.
Testosterone (1 μM) and 7-hydroxycoumarin (1 μM) were used, respectively as phase I and phase II metabolic reaction controls.
After 0, 10, 20, 45, 90, 120 and 180 min of incubation, the reaction was terminated with 225 μL of MeCN:MeOH (2:1) containing 100 ng/mL of diclofenac as analytical internal standard. Samples were mixed, centrifuged and the supernatant analyzed by LC-MS/MS.
The instrument responses (ratios of test compound and internal standard peak areas) were referenced to the zero time point samples (considered as 100%) in order to determine the percentage of compound remaining.
Plots of percentage compound remaining are used to determine the intrinsic clearance in the hepatocyte incubations using the following equations:
Scaled Clint[L/h/kg]=Clint[μL/min/10^6 cells]*#(10^6) cells/g liver*60*(1/10^6) Scaled Clint unbound [L/h/kg]=Clint [L/h/kg]/Fu,inc where: fu,inc equals hepatocyte binding, derived from microsomal binding (fu,mic) by following equation: […]

[2] = test system: CL097 triggered IFNα and TNFα release in human whole blood; assay: Ex vivo human IFNα and TNFα release inhibition (whole blood assay, CL097 triggered); format: cell-based; conditions: CL097 2 μg/mL, 3 h 30 min
Excerpt: 4.10.1. Ex Vivo Human IFNα and TNFα Release Inhibition (Whole Blood Assay)
The aim of the assay is to evaluate the activity of compounds of the invention on the activated TLR/IRAK-4 pathway in an ex vivo human whole blood setting. Toll-like receptors (TLRs) are pattern recognition receptors that recognize a wide variety of microbial molecules, called pathogen-associated molecular patterns (PAMPs). Human TLR7 and TLR8 recognize imidazoquinoline compounds (e.g., CL097—CAS n #1026249-18-2) and single stranded RNAs as their natural ligands. Activation of TLRs leads to the production of several cytokines (e.g., IFNα, TNFα, IL-8, IL-6) by the TLR agonist-treated cells, whereas IRAK4 leads to the production of IFNα. Cytokine release is used as readout in this assay and represents a measure for the level of inhibition of the TLR/IRAK-4 pathway by the tested compound. It should be noted that in the context of the complete organism, other sources for these cytokines exist that are not dependent on the TLR/IRAK-4 pathway, such as e.g., macrophages (upon activation of the Fcγ receptor (Yan et al. 2012)) or T cells (upon activation of the T cell receptor (Brehm, Daniels, and Welsh 2005)).
4.10.1.1. Experimental Design
Blood was collected from healthy volunteers into lithium heparin tubes by venipuncture, then gently inverted several times to prevent clotting and incubated for at least 15 min at 37° C. on a rocking mixer shaker. Then, 100 μL of blood was dispensed into polypropylene 96-well microplate and pre-incubated in duplicate with 0.3% DMSO or test compound at different concentrations (from 30 to 0.01 μM, 3-fold dilutions to get 0.3% DMSO at the final) for 15 min at 37° C. After this pre-incubation, blood was triggered with CL097 (2 μg/mL from 1 mg/mL solution in water; InvivoGen, tlr1-c97) for 3 h 30 min at 37° C. Microtubes were centrifuged at 5000×g for 10 min at 4° C. and approximately 40 μL of plasma were collected into a polystyrene 96-well plate. Plasma could be analyzed freshly, within 30 min after triggering, or frozen at −80° C. Finally, the quantification of TNFα and IFNα were performed in the plasma using AlphaLISA Kit for […] according to the manufacturer's instructions and read on the Ensight (PerkinElmer).
A standard curve was created by plotting on log-log the mean absorbance on the y-axis against the concentration on the x-axis and a 4 PL was made through the points. For each blood sample, the IFNα concentrations of the samples were determined from the fit.
Data were then expressed as a percentage of inhibition (PIN) for each replicate using the formula:
With mean IFNα with CL097=mean IFNα concentration of replicate samples triggered with CL097; IFNαsample1=IFNα concentration of sample 1; mean IFNα with vehicle=mean IFNα concentration of replicate samples treated with vehicle.
For each blood sample, the TNFα concentrations of the samples were determined from the fit. Data were then expressed as a percentage of inhibition (PIN) for each replicate using the formula:
With mean TNFα with CL097=mean TNFα concentration of replicate samples triggered with CL097; TNFαsample1=TNFα concentration of sample 1; mean TNFα with vehicle=mean TNFα concentration of replicate samples treated with vehicle.
Curve fitting for pIC50 determination were generated using mean PIN±sem. Graphs and pIC50 calculations were derived using Prism 5.03 software (GraphPad).

SMILES	Human (Perc. remaining at 90 min) [1]	IC50 ([2]; read-out: IFNα IC50)	IC50 ([2]; read-out: TNFα IC50)
[2H]C([2H])([2H])NC(=O)c1cc2nc(CCC(C)(C)O)cn2cc1NC(=O)c1cccc(C(F)(F)F)n1 [Compound 1, 2-(3-hydroxy-3-methyl-butyl)-N-(trideuteriomethyl)-6-[[6-(trifluoromethyl)pyridine-2-carbonyl]amino]imidazo[1,2-a]pyridine-7-carboxamide]	96.4%	1000 to 5000 nM	0.1 to 500 nM
CNC(=O)c1cc2nc(CCC(C)(C)O)cn2cc1NC(=O)c1cccc(C(F)(F)F)n1 [Compound 2, 2-(3-hydroxy-3-methyl-butyl)-N-methyl-6-[[6-(trifluoromethyl)pyridine-2-carbonyl]amino]imidazo[1,2-a]pyridine-7-carboxamide]	99.9%	500 to 1000 nM	0.1 to 500 nM
COc1cc2nc(CCC(C)(C)O)cn2cc1NC(=O)c1cccc(C(F)(F)F)n1 [Compound 3, N-[2-(3-hydroxy-3-methyl-butyl)-7-methoxy-imidazo[1,2-a]pyridin-6-yl]-6-(trifluoromethyl)pyridine-2-carboxamide]	94.55%	1000 to 5000 nM	
COc1cc2nc(CCC(C)(C)O)cn2cc1NC(=O)c1cccn(C)c1=O [Compound 4, N-[2-(3-hydroxy-3-methyl-butyl)-7-methoxy-imidazo[1,2-a]pyridin-6-yl]-1-methyl-2-oxo-pyridine-3-carboxamide]	99.7%	0.1 to 500 nM	
COc1cc2nc(CCC(C)(C)O)cn2cc1NC(=O)c1cccn(C2CC2)c1=O [Compound 5, 1-cyclopropyl-N-[2-(3-hydroxy-3-methyl-butyl)-7-methoxy-imidazo[1,2-a]pyridin-6-yl]-2-oxo-pyridine-3-carboxamide]	95.6%	0.1 to 500 nM	
COc1cc2nc(CCC(C)(C)O)cn2cc1NC(=O)c1cccc(C)n1 [Compound 6, N-[2-(3-hydroxy-3-methyl-butyl)-7-methoxy-imidazo[1,2-a]pyridin-6-yl]-6-methyl-pyridine-2-carboxamide]	30.3%	0.1 to 500 nM	
COc1cc2nc(CCC(C)(C)O)cn2cc1NC(=O)c1cccc(C(F)F)n1 [Compound 7, 6-(difluoromethyl)-N-[2-(3-hydroxy-3-methyl-butyl)-7-methoxy-imidazo[1,2-a]pyridin-6-yl]pyridine-2-carboxamide]	78.4%	0.1 to 500 nM	
COc1cccc(C(=O)Nc2cn3cc(CCC(C)(C)O)nc3cc2OC)n1 [Compound 8, N-[2-(3-hydroxy-3-methyl-butyl)-7-methoxy-imidazo[1,2-a]pyridin-6-yl]-6-methoxy-pyridine-2-carboxamide]	78.4%		
COc1cc2nc(CCC(C)(C)O)cn2cc1NC(=O)c1cccn(C(F)F)c1=O [Compound 12, 1-(difluoromethyl)-N-[2-(3-hydroxy-3-methyl-butyl)-7-methoxy-imidazo[1,2-a]pyridin-6-yl]-2-oxo-pyridine-3-carboxamide]	100.7%	500 to 1000 nM	
COc1cc2nc(CCC(C)(C)O)cn2cc1NC(=O)c1cccn(CC(F)(F)F)c1=O [Compound 13, N-[2-(3-hydroxy-3-methyl-butyl)-7-methoxy-imidazo[1,2-a]pyridin-6-yl]-2-oxo-1-(2,2,2-trifluoroethyl)pyridine-3-carboxamide]	105.95%		
COc1cc2nc(CCC(C)(C)O)cn2cc1NC(=O)c1cccn(C2CCC2)c1=O [Compound 18, 1-cyclobutyl-N-[2-(3-hydroxy-3-methyl-butyl)-7-methoxy-imidazo[1,2-a]pyridin-6-yl]-2-oxo-pyridine-3-carboxamide]	93.95%		
COc1cc2nc(CCC(C)(C)O)cn2cc1NC(=O)c1cccc(C(C)(F)F)n1 [Compound 20, 6-(1,1-difluoroethyl)-N-[2-(3-hydroxy-3-methyl-butyl)-7-methoxy-imidazo[1,2-a]pyridin-6-yl]pyridine-2-carboxamide]	75.55%		
CCn1cccc(C(=O)Nc2cn3cc(CCC(C)(C)O)nc3cc2OC)c1=O [Compound 23, 1-ethyl-N-[2-(3-hydroxy-3-methyl-butyl)-7-methoxy-imidazo[1,2-a]pyridin-6-yl]-2-oxo-pyridine-3-carboxamide]	91.45%		
COc1cc2nc(CCS(C)(=O)=O)cn2cc1NC(=O)c1cccc(C(F)(F)F)n1 [Compound 24, N-[7-methoxy-2-(2-methylsulfonylethyl)imidazo[1,2-a]pyridin-6-yl]-6-(trifluoromethyl)pyridine-2-carboxamide]	73.6%	500 to 1000 nM	
COc1cc2nc(CCS(C)(=O)=O)cn2cc1NC(=O)c1cccn(C2CC2)c1=O [Compound 25, 1-cyclopropyl-N-[7-methoxy-2-(2-methylsulfonylethyl)imidazo[1,2-a]pyridin-6-yl]-2-oxo-pyridine-3-carboxamide]	95.3%	0.1 to 500 nM	
CC(C)(O)CCc1cn2cc(NC(=O)c3cccc(C(F)(F)F)n3)c(C(N)=O)cc2n1 [Compound 31, 2-(3-hydroxy-3-methyl-butyl)-6-[[6-(trifluoromethyl)pyridine-2-carbonyl]amino]imidazo[1,2-a]pyridine-7-carboxamide]	94.9%	0.1 to 500 nM	0.1 to 500 nM
COCCc1cn2cc(NC(=O)c3cccc(C(F)(F)F)n3)c(OC)cc2n1 [Compound 35, N-[7-methoxy-2-(2-methoxyethyl)imidazo[1,2-a]pyridin-6-yl]-6-(trifluoromethyl)pyridine-2-carboxamide]	64.9%	> 5000 nM	> 5000 nM
CCOc1c(NC(=O)c2cccn(C3CC3)c2=O)cn2cc(CCC(C)(C)O)nc2c1F [Compound 37, 1-cyclopropyl-N-[7-ethoxy-8-fluoro-2-(3-hydroxy-3-methyl-butyl)imidazo[1,2-a]pyridin-6-yl]-2-oxo-pyridine-3-carboxamide]	99.7%		1000 to 5000 nM
CCOc1c(NC(=O)c2cccn(C3CC3)c2=O)cn2cc(CCS(C)(=O)=O)nc2c1F [Compound 39, 1-cyclopropyl-N-[7-ethoxy-8-fluoro-2-(2-methylsulfonylethyl)imidazo[1,2-a]pyridin-6-yl]-2-oxo-pyridine-3-carboxamide]		500 to 1000 nM	500 to 1000 nM
CCNC(=O)c1cc2nc(CCC(C)(C)O)cn2cc1NC(=O)c1cccc(C(F)(F)F)n1 [Compound 49, N-ethyl-2-(3-hydroxy-3-methylbutyl)-6-(6-(trifluoromethyl)picolinamido)imidazo[1,2-a]pyridine-7-carboxamide]	95.9%		
